Key:
[1] = Blocker Index (BI), expert graders, isovaleric acid malodorous swatch; set-up: key: Blocker Index, 0–3 scale anchored by reference swatches (0 = clean swatch)
Excerpt: Blocker materials suitable for use in cleaning and/or treatment compositions of the present invention are chosen for their ability to decrease malodor, while not interfering with perception of a fragrance. Material selection is done by assigning two indices to a test sample material from two reference scales in order to rank odor strengths. The two reference scales are the Fragrance Fidelity Index (FFI) scale and the Blocker Index (BI) scale. The FFI ranks the ability of the test sample material to impart a perceivable odor which could cause interference when combined with another fragrance and the BI ranks the ability of the test sample material to reduce malodor perception. The two methods for assigning the indices to a test sample on the FFI and the BI reference scales are given below.
The first step in the method for assigning a BI to a test sample material on the BI reference scale is to create the BI reference swatches. […] Fabric swatches for this test are white knit polycotton (4 inch×4 inch) swatches from EMC ordered as PC 50/50. The supplier is instructed to strip the swatches first, stripping involves washing twice with a fragrance-free detergent and rinsing three times.
The BI scale contains one clean swatch with no malodor applied. […] These solutions are pipetted to the middle of the swatches. […] After drying for 30 minutes in a vented hood, the swatches are wrapped in aluminum foil to prevent odor contamination to the treated swatch. A clean untreated swatch is also included as the lowest anchor point of reference for malodor strength on the BI scale. The BI reference scale swatches should be used within 0.5 to 12 hours and discarded after 12 hours. The swatches are used as scale anchor points when graders evaluate a test sample(s) and are assigned a Blocker Index (BI) as show in Table 12.
The perfumer/expert grader is asked to rank order swatches according to a scale between 0 and 3.
The reference swatches represent the 0, 1, 2, and 3 BIs on the BI reference scale, Table 12. The expert grader should familiarizes him/herself with the strength of the odor on the BI reference swatches by sniffing each one starting at 0 (the lowest odor strength) and ending at 3 (the highest odor strength). This should be done prior to evaluating the swatch treated with the test material.
To evaluate the BI, the test material is applied to a malodorous swatch to determine how well the test material blocks the malodor. […] After drying the malodorous swatch a known concentration of test material solution, between 1 ppm and 100 ppm is pipetted onto the malodorous swatch. […] It is sometimes necessary to evaluate several levels of the test material between about 1 and about 100 ppm to determine the BI.
At least two perfumers/expert graders are used to assign the BI to the test sample. […] The test sample swatch is assigned a BI at or between numbers on the BI in table.

[2] = Fragrance Fidelity Index (FFI), expert graders, treated fabric swatch against ethyl vanillin reference scale
Excerpt: Blocker materials suitable for use in cleaning and/or treatment compositions of the present invention are chosen for their ability to decrease malodor, while not interfering with perception of a fragrance. Material selection is done by assigning two indices to a test sample material from two reference scales in order to rank odor strengths. The two reference scales are the Fragrance Fidelity Index (FFI) scale and the Blocker Index (BI) scale. The FFI ranks the ability of the test sample material to impart a perceivable odor which could cause interference when combined with another fragrance and the BI ranks the ability of the test sample material to reduce malodor perception. The two methods for assigning the indices to a test sample on the FFI and the BI reference scales are given below. The first step in the method for assigning an FFI to the test samples on the FFI reference scale is to create the FFI reference swatches. […] Fabric swatches for this test are white knit polycotton (4 inch×4 inch) swatches from EMC ordered as PC 50/50. The supplier is instructed to strip the swatches first, stripping involves washing twice with a fragrance-free detergent and rinsing three times. […] This will create a sensory scale of three swatches with three different odor levels based on the concentration of the solution pipetted onto the swatch. […] A clean untreated swatch is also included as the lowest anchor point of reference for odor strength on the FFI scale. […] The swatches are used as scale anchor points when graders evaluate a test sample(s) and are assigned a Fragrance Fidelity Index (FFI) as show in Table 7. […] This should be done prior to evaluating the test sample material treated swatch. […] At least two perfumers/expert graders are used to assign an FFI grade to a test sample.

[3] = test material at 10 ppm on isovaleric acid malodorous swatch
[4] = test material at 50 ppm on isovaleric acid malodorous swatch

Structure (SMILES) | BI [1, 3] | BI [1, 4] | BI ([1]; Conc 50 ppm) | FFI ([2]; Conc 50 ppm) | BI ([1]; Conc 10 ppm) | FFI ([2]; Conc 10 ppm) | BI grade of reference swatch, Ave ([1]; 2 μL 0.08% isovaleric acid, all graders (Table 10))
CC1(C)CCc2ccc(CCC=O)cc21 | 1.5 | 2.7 | – | – | – | – | –
CCCCCCCCCCCO [Undecanol] | – | – | 2.3 | 0.8 | – | – | –
CCCCCCCCCCCC(=O)OCC [Material 391] | – | – | 2.2 | 0.3 | – | – | –
CC(C)(C)C1CCCCC1 [4-tert-butyl cyclohexane] | – | – | 2.0 | 0.3 | 2.0 | 0 | –
C=C1CCC2OC2(C)CCC2C1CC2(C)C (centres unmarked) [Material 1148] | – | – | 2.3 | 0.5 | – | – | –
CC(=O)OC1CC2CC1C1CC=CC21 (centres unmarked) [Material 281] | – | – | 2.0 | 0.5 | 2.0 | 0 | –
CC(CCO)CCc1ccccc1 (centres unmarked) [Material 962] | – | – | 1.7 | 0.5 | 2.3 | 0 | –
O=C1CCC2CCCCC2O1 (centres unmarked) [3,4,4a,5,6,7,8,8a-octahydrochromen-2-one] | – | – | 2.0 | 0 | 2.0 | 0 | –
CC1CCC2(C(C)C)CC(C)OC2C1 (centres unmarked) | 2.0 | 2.2 | – | – | – | – | –
CCC(O)COC1CCCCC1C(C)(C)C (centres unmarked) [Material 677] | – | – | 2.0 | 1.8 | 2.3 | 0 | –
CC1(C)CCc2ccc(CCC=O)cc21 [Material 261] | – | – | 1.3 | 1.3 | 1.8 | 0 | –
CC(=O)OCCCCCCC(C)C [Material 204] | – | – | 2.7 | 0 | 2.0 | 0 | –
CCOC(=O)OC1C(C)CCC(C)C1C (centres unmarked) [Material 1005] | – | – | 2.6 | 0.5 | – | – | –
CCCCCCCCCCCCCCCC(=O)OC [Material 109] | – | – | – | – | 2.0 | – | –
COC(=O)OC1CC/C=C\CCC1 (centres unmarked) [Material 1139] | – | – | 2.7 | 1.0 | 2.0 | 0 | –
CC(C)CC(=O)O [isovaleric acid, reference compound] | – | – | – | – | – | – | 1.0
CCCCCCCCCCCCO [Material 174] | – | – | 2.3 | 0.5 | – | – | –
CC1(C)C2CCC3(C2)C1C(=O)CCC3(C)C (centres unmarked) [Material 1149] | – | – | 2.3 | 0.8 | 1.5 | 0 | –
CCC(=O)OC1CC2C3C=CCC3C1C2(C)C (centres unmarked) [8,8-dimethyl-3a,4,5,6,7,7a-hexahydro-1H-4,7-methanoinden-6-yl propionate] | 1.5 | 2.2 | – | – | – | – | –
C=CC(C)=CCC=C(C)C [Material 524] | – | – | 2.8 | 0 | – | – | –

Reference: US20160090555A1, “CLEANING AND/OR TREATMENT COMPOSITIONS COMPRISING MALODOR REDUCTION COMPOSITIONS” (The Procter & Gamble Company, priority 2014, published 2016)
